Laboratory results published in PubChem BioAssay (NCI).
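Grown in 96-well plates, cells were treated for 48 hours with each compound at five concentrations. Insufficient inhibition: endpoint recorded as highest concentration tested. GI50 marks 50% less growth. At the TGI there is no net growth.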

Tests used:
Experiment in all cases: DTP human tumour cell line panel, 48 h
[1] = test system: SW-620 colon
[2] = test system: U251 CNS
[3] = test system: OVCAR-4 ovarian
[4] = test system: BT-549 breast
[5] = test system: NCI-H226 lung
[6] = test system: HL-60(TB) leukemia
[7] = test system: A549 NSCLC
[8] = test system: HCT-15 colon
[9] = test system: HOP-62 NSCLC
[10] = test system: HOP-92 NSCLC
[11] = test system: MALME-3M melanoma
[12] = test system: A498 renal
[13] = test system: NCI/ADR-RES ovarian
[14] = test system: K-562 leukemia
[15] = test system: T-47D breast
[16] = test system: PC-3 prostate
[17] = test system: DU-145 prostate
[18] = test system: EKVX NSCLC
[19] = test system: KM12 colon
[20] = test system: UO-31 renal
[21] = test system: RPMI-8226 leukemia
[22] = test system: UACC-257 melanoma
[23] = test system: MCF7 breast
[24] = test system: ACHN renal
[25] = test system: SF-268 CNS
[26] = test system: SN12C renal
[27] = test system: RXF 393 renal
[28] = test system: HT29 colon
[29] = test system: OVCAR-8 ovarian
[30] = test system: NCI-H23 lung
[31] = test system: OVCAR-5 ovarian
[32] = test system: HCT-116 colon
[33] = test system: NCI-H522 lung
[34] = test system: SNB-75 CNS
[35] = test system: SK-MEL-2 melanoma
[36] = test system: SF-295 CNS
[37] = test system: SK-MEL-28 melanoma
[38] = test system: CAKI-1 renal
[39] = test system: UACC-62 melanoma
[40] = test system: SK-OV-3 ovarian
[41] = test system: SF-539 CNS
[42] = test system: NCI-H460 lung
[43] = test system: IGROV1 ovarian
[44] = test system: MDA-MB-435
[45] = test system: CCRF-CEM leukemia
[46] = test system: HCC-2998 colon
[47] = test system: M14 melanoma
[48] = test system: MOLT-4 leukemia
[49] = test system: SR leukemia
[50] = test system: MDA-MB-231 breast
[51] = test system: TK-10 renal
[52] = test system: 786-0 renal
[53] = test system: COLO 205 colon
[54] = test system: OVCAR-3 ovarian
[55] = test system: SK-MEL-5 melanoma
[56] = test system: SNB-19 CNS
[57] = test system: HS 578T breast
[58] = test system: LOX IMVI melanoma

## Oc1c(CNCCNCc2cc(Cl)cc(Cc3ccccc3)c2O)cc(Cl)cc1Cc1ccccc1
[1]
  GI50: 472 nM
  TGI: 30700 nM
[2]
  GI50: 297 nM
  TGI: 14400 nM
[3]
  GI50: 80.6 nM
  TGI: > 100000 nM
[4]
  GI50: 4260 nM
  TGI: 28000 nM
[5]
  GI50: 438 nM
  TGI: 15500 nM
[6]
  GI50: 430 nM
  TGI: 9840 nM
[7]
  GI50: 469 nM
  TGI: > 100000 nM
[8]
  GI50: 139 nM
  TGI: 14900 nM
[9]
  GI50: 307 nM
  TGI: 47300 nM
[10]
  GI50: 2680 nM
  TGI: 23900 nM
[11]
  GI50: 600 nM
  TGI: 7600 nM
[12]
  GI50: 1220 nM
  TGI: 8880 nM
[13]
  GI50: 364 nM
  TGI: 18300 nM
[14]
  GI50: 391 nM
  TGI: 27200 nM
[15]
  GI50: 391 nM
  TGI: 37900 nM
[16]
  GI50: 620 nM
  TGI: > 100000 nM
[17]
  GI50: 303 nM
  TGI: 57100 nM
[18]
  GI50: 193 nM
  TGI: > 100000 nM
[19]
  GI50: 340 nM
  TGI: 15200 nM
[20]
  GI50: 128 nM
  TGI: 1340 nM
[21]
  GI50: 695 nM
  TGI: 6390 nM
[22]
  GI50: 2120 nM
  TGI: 16600 nM
[23]
  GI50: 291 nM
  TGI: 47700 nM
[24]
  GI50: 127 nM
  TGI: 11800 nM
[25]
  GI50: 224 nM
  TGI: > 100000 nM
[26]
  GI50: 483 nM
  TGI: 19400 nM
[27]
  GI50: 414 nM
  TGI: 3970 nM
[28]
  GI50: 668 nM
  TGI: 20000 nM
[29]
  GI50: 474 nM
  TGI: > 100000 nM
[30]
  GI50: 668 nM
  TGI: 17600 nM
[31]
  GI50: 1200 nM
  TGI: > 100000 nM
[32]
  GI50: 398 nM
  TGI: 13200 nM
[33]
  GI50: 546 nM
  TGI: 25600 nM
[34]
  GI50: 1650 nM
  TGI: 50200 nM
[35]
  GI50: 1820 nM
  TGI: 23900 nM
[36]
  GI50: 448 nM
  TGI: 4100 nM
[37]
  GI50: 478 nM
  TGI: 30700 nM
[38]
  GI50: 338 nM
  TGI: 18700 nM
[39]
  GI50: 436 nM
  TGI: 10900 nM
[40]
  GI50: 462 nM
  TGI: > 100000 nM
[41]
  GI50: 314 nM
  TGI: 3930 nM
[42]
  GI50: 331 nM
  TGI: 12200 nM
[43]
  GI50: 475 nM
  TGI: 16300 nM
[44]
  GI50: 435 nM
  TGI: 13200 nM
[45]
  GI50: 127 nM
  TGI: 24400 nM
[46]
  GI50: 451 nM
  TGI: 10100 nM
[47]
  GI50: 316 nM
  TGI: 10700 nM
[48]
  GI50: 342 nM
  TGI: > 100000 nM
[49]
  GI50: 376 nM
  TGI: > 100000 nM
[50]
  GI50: 730 nM
  TGI: 25000 nM
[51]
  GI50: 228 nM
  TGI: > 100000 nM
[52]
  GI50: 375 nM
  TGI: 10400 nM
[53]
  GI50: 309 nM
  TGI: 1530 nM
[54]
  GI50: 428 nM
  TGI: 31100 nM
[55]
  GI50: 302 nM
  TGI: 1910 nM
[56]
  GI50: 701 nM
  TGI: > 100000 nM
[57]
  GI50: 3910 nM
  TGI: 59300 nM
[58]
  GI50: 136 nM
  TGI: 1660 nM
